In ChEMBL document CHEMBL2303647, “Data associated with the publication PLoS ONE, 8(3), e57888, (2013) PMID: 23505445. Compounds: GSK PKIS; Assays: NIH NCATS” one finds AC50 data, which are given here for 35 molecules.

Structures are written as SMILES.

For assay [1], the target named is T1, Coelenterazine h 2-monooxygenase (Renilla reniformis, UniProt P27652).
T1 sequence (P27652 whole entry): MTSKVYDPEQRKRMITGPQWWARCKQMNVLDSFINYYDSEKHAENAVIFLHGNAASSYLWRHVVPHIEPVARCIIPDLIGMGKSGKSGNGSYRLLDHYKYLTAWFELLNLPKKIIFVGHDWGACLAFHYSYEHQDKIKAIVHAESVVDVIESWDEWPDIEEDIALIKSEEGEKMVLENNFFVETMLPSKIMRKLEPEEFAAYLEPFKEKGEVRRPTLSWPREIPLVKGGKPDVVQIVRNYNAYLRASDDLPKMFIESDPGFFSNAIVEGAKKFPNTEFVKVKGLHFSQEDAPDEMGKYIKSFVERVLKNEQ
Description: GSK_PKIS: Inhibition of Sea Pansy Luciferase (Data from PubChem: AID 652015) [NIH NCATS]

The target in assay [2] is Luciferin 4-monooxygenase (Photinus pyralis, UniProt P08659).
Chain of Luciferin 4-monooxygenase (P08659 whole entry): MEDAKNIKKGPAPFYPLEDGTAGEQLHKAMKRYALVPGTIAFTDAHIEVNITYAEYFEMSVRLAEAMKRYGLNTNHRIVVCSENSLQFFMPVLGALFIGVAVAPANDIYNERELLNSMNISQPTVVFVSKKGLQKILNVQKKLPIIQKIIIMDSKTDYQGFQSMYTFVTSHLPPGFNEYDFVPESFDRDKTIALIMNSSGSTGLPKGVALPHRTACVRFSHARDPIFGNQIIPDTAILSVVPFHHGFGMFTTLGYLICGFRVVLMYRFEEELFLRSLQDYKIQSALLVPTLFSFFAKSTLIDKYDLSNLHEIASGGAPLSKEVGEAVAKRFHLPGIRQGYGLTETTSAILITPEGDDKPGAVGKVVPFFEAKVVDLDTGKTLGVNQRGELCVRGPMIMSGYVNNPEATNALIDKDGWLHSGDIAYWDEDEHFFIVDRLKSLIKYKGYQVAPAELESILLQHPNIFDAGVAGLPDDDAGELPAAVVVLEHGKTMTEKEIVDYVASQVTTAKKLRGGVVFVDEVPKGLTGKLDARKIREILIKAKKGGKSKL
Description: GSK_PKIS: Inhibition of Firefly Luciferase (Data from PubChem: AID 652016) [NIH NCATS]

With `CNC(=O)c1ncccc1Nc1nc(Nc2cc3c(cc2OC)CCCN3C(=O)CN(C)C)nc2[nH]ccc12` [GSK-2220400A], the concentration at half-maximal activity (AC50) entry was “Phenotype: Activator; Curve_Description: None” in assay [1] and “Phenotype: Inactive; Curve_Description: None” in assay [2].

In the case of `NS(=O)(=O)c1cccc(N/C=C2\C(=O)Nc3ccccc32)c1` [GW275616X], the values for the AC50 entry in assay [1] and in assay [2] (read-out: AC50) were “Phenotype: Inactive; Curve_Description: None” and 18.3 µM, respectively.

For `Cc1ccc2c(c1)/C(=N/Nc1ccc(S(N)(=O)=O)cc1)C(=O)N2` [GW275944X], the AC50 result in assay [1] and in assay [2] was “Phenotype: Inactive; Curve_Description: None” in each case.

On to `NS(=O)(=O)c1ccc(N/N=C2\C(=O)Nc3ccc(-c4cnco4)cc32)cc1` [GW276655X], for which the AC50 result in assay [1] and in assay [2] was “Phenotype: Inactive; Curve_Description: None” in each case.

Regarding `CS(=O)(=O)Nc1ccc(N/C=C2\C(=O)Nc3ccccc32)cc1` [GW278681X], the AC50 in assay [1] (read-out: AC50) turned out to be 23.1 µM; in assay [2] (read-out: AC50), 16.3 µM.

`Cc1cc(Cl)cc2c1NC(=O)C2=NNc1ccc(S(N)(=O)=O)cc1` [GW279320X]: the AC50 in assay [1] (read-out: AC50) is 29.1 µM; in assay [2] it was “Phenotype: Inactive; Curve_Description: None”.

As to `NS(=O)(=O)c1ccc(N/N=C2\C(=O)Nc3ccc(Cl)cc32)cc1` [GW280670X], the AC50 in assay [1] (read-out: AC50) worked out at 36.6 µM; in assay [2] (read-out: AC50) it was 41.1 µM.

For `COc1cc2ncnc(Nc3ccc4c(cnn4Cc4ccccc4)c3)c2cc1OC.Cl` [GW282449A], the AC50 result in assay [1] and in assay [2] was “Phenotype: Inactive; Curve_Description: None” throughout.

Take `Cc1cccc2c1NC(=O)/C2=N\Nc1ccc(S(N)(=O)=O)cc1` [GW282536X]: the results for the concentration at half-maximal activity (AC50) in assay [1] (read-out: AC50) and in assay [2] were 18.3 µM and “Phenotype: Inactive; Curve_Description: None”, respectively.

In the case of `CN(C)c1cc2c(Nc3ccc4c(cnn4Cc4ccccc4)c3)ncnc2cn1` [GW282974X], the AC50 in assay [1] (read-out: AC50) is 23.1 µM; in assay [2], “Phenotype: Inactive; Curve_Description: None”.

For `c1ccc(COc2ccc(Nc3ncnc4ccc(-c5ccco5)cc34)cc2)cc1` [GW284372X], the AC50 result in assay [1] was “Phenotype: Inactive; Curve_Description: None”; in assay [2] (read-out: AC50), 29.1 µM.

In the case of `O=C1Nc2ccccc2/C1=C/Nc1ccc2[nH]c(=O)[nH]c2c1` [GW284408X], the AC50 entry in assay [1] was “Phenotype: Inactive; Curve_Description: None”; in assay [2] (read-out: AC50) it was 4.11 µM.

On to `NS(=O)(=O)c1ccc(N/N=C2\C(=O)Nc3ccc(C(=O)NCCCn4ccnc4)cc32)cc1` [GW290597X], for which the AC50 in assay [1] (read-out: AC50) was 18.3 µM; in assay [2] it was “Phenotype: Inactive; Curve_Description: None”.

Consider `COc1ccc2[nH]c3c4[nH]c5ccc(OC)cc5c4c4c(c3c2c1)C(=O)NC4=O` [GW296115X], for which the AC50 in assay [1] (read-out: AC50) is 25.9 µM; in assay [2] it was “Phenotype: Inactive; Curve_Description: None”.

As for `NS(=O)(=O)c1ccc(N/C=C2\C(=O)Nc3ccc4ncsc4c32)cc1` [GW297361X], the values for the AC50 in assay [1] (read-out: AC50) and in assay [2] were 32.6 µM and “Phenotype: Inactive; Curve_Description: None”, respectively.

As for `CC(C)c1ccc2c(c1)NC(=O)/C2=N/Nc1ccc(S(N)(=O)=O)cc1` [GW300653X], the AC50 entry in assay [1] and in assay [2] was “Phenotype: Inactive; Curve_Description: None” in each case.

On to `NS(=O)(=O)c1ccc(N/N=C2\C(=O)Nc3ccc(C(=O)NCc4ccncc4)cc32)cc1` [GW300657X], for which the AC50 result in assay [1] and in assay [2] was “Phenotype: Inactive; Curve_Description: None” in each case.

Turning to `NS(=O)(=O)c1ccc(N/N=C2\C(=O)Nc3ccc(C(=O)NCCc4c[nH]cn4)cc32)cc1` [GW300660X], the results for the AC50 in assay [1] (read-out: AC50) and in assay [2] were 16.3 µM and “Phenotype: Inactive; Curve_Description: None”, respectively.

Turning to `CC(C)(CO)CNC(=O)c1ccc2c(c1)/C(=N/Nc1ccc(S(N)(=O)=O)cc1)C(=O)N2` [GW301784X], the AC50 result in assay [1] was “Phenotype: Inactive; Curve_Description: None”; in assay [2] (read-out: AC50), 41.1 µM.

Take `O=C1Nc2ccccc2/C1=C/Nc1ccc(-n2cncn2)cc1` [GW301789X]: the AC50 entry in assay [1] was “Phenotype: Inactive; Curve_Description: None”; in assay [2] (read-out: AC50), 18.3 µM.

Consider `CN(C)c1cc2c(Nc3ccc4nc(Cc5ccccc5)[nH]c4c3)ncnc2cn1` [GW301888X], for which the AC50 in assay [1] (read-out: AC50) amounted to 18.3 µM; in assay [2] (read-out: AC50), 16.3 µM.

On to `O=C1Nc2ccc(I)cc2C1=Cc1cc(Br)c(O)c(Br)c1` [GW305074X], for which the AC50 in assay [1] (read-out: AC50) was 20.6 µM; in assay [2], “Phenotype: Inactive; Curve_Description: None”.

`NS(=O)(=O)c1ccc(N/N=C2\C(=O)Nc3ccc4ncccc4c32)cc1` [GW305178X]: the AC50 is 23.1 µM in assay [1] (read-out: AC50) and 29.1 µM in assay [2] (read-out: AC50).

With `C/C(Nc1ccc(S(N)(=O)=O)cc1)=C1/C(=O)Nc2ccccc21` [GW335962X], the AC50 entry in assay [1] is “Phenotype: Inactive; Curve_Description: None”; in assay [2] (read-out: AC50), 3.66 µM.

`Cl.NS(=O)(=O)c1ccc(N/N=C2\C(=O)Nc3cccc(CCc4ccncc4)c32)cc1` [GW352430A]: the AC50 result in assay [1] and in assay [2] was “Phenotype: Inactive; Curve_Description: None” each time.

For the molecule `CC(C)=Cc1cccc2c1/C(=N/Nc1ccc(S(N)(=O)=O)cc1)C(=O)N2` [GW396574X], the values for the AC50 in assay [1] (read-out: AC50) and in assay [2] were 20.6 µM and “Phenotype: Inactive; Curve_Description: None”, respectively.

With `COC(=O)c1ccc2c(c1)C(=Cc1cc(Br)c(O)c(Br)c1)C(=O)N2` [GW405841X], the figures for the AC50 in assay [1] (read-out: AC50) and in assay [2] (read-out: AC50) were 13 µM and 20.6 µM, respectively.

Turning to `O=C1Nc2ccc(C(=O)c3ccco3)cc2C1=Cc1cc(Cl)c(O)c(Cl)c1` [GW406108X], the AC50 in assay [1] (read-out: AC50) amounted to 16.3 µM; in assay [2] (read-out: AC50), 18.3 µM.

`COC(=O)c1cncc(/C=C/c2c(C)cc(O)cc2C)c1` [GW406731X]: the AC50 entry in assay [1] and in assay [2] was “Phenotype: Inactive; Curve_Description: None” each time.

As for `Nc1nc(-c2ccc3c(c2)C(=Cc2cc(Br)c(O)c(Br)c2)C(=O)N3)cs1` [GW407323A], the AC50 in assay [1] (read-out: AC50) came to 20.6 µM; in assay [2] (read-out: AC50) it was 29.1 µM.

Turning to `COc1cc2ncnc(Nc3ccc(C)c(O)c3)c2cc1OC.Cl` [GW410563A], the AC50 entry in assay [1] and in assay [2] was “Phenotype: Inactive; Curve_Description: None” throughout.

Regarding `CN(C)c1ccc2c(c1)/C(=C/Nc1ccc(S(N)(=O)=O)cc1)C(=O)N2` [GW416469X], the AC50 in assay [1] (read-out: AC50) is 5.8 µM; in assay [2], “Phenotype: Inactive; Curve_Description: None”.

Regarding `CC(C)COC(=O)c1ccc2c(c1)/C(=C/Nc1ccc(S(N)(=O)=O)cc1)C(=O)N2` [GW416981X], the half-maximal activity concentration (AC50) entry in assay [1] and in assay [2] was “Phenotype: Inactive; Curve_Description: None” throughout.

On to `Cc1cc(O)cc(C)c1/C=C/c1cncc(C(=O)N(C)C)c1` [GW427984X], for which the AC50 result in assay [1] and in assay [2] was “Phenotype: Inactive; Curve_Description: None” throughout.

In the case of `O=C1Nc2ccc(-c3cccnc3)cc2C1=Cc1cc(Br)c(O)c(Br)c1` [GW429374A], the AC50 stood at 18.3 µM in assay [1] (read-out: AC50) and 32.6 µM in assay [2] (read-out: AC50).
